The pIC50 is the IC50 on a negative log10 scale, so that one unit is a factor of ten.

pIC50: −log10 of the molar value.

The values that follow come from ChEMBL document CHEMBL1141678 (Eur J Med Chem, 2008).

Data set [1] deals with T1, Cytochrome P450 2B6 (Homo sapiens, UniProt P20813).
T1 sequence (P20813 whole entry): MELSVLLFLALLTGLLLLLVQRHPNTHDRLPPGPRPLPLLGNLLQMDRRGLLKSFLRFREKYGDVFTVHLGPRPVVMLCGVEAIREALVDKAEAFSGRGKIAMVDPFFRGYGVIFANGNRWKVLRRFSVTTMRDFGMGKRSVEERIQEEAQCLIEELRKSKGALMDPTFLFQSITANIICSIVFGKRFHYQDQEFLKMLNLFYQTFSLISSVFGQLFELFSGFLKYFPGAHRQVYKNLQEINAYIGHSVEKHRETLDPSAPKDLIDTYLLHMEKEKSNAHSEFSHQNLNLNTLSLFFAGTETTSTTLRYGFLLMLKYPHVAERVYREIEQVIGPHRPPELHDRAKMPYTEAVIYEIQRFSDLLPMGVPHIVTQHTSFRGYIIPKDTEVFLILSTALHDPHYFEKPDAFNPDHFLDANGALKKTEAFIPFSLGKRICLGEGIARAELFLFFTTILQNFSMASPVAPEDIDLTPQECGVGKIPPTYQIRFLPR
As to the kind of experiment: Inhibition of human recombinant CYP2B6 in presence of reduced glutathione. Type of data set: ADME. The note with it: recombinant enzyme.

Data set [2] concerns the target T2, Cytochrome P450 2C9 (Homo sapiens, UniProt P11712). The experiment in a line: Inhibition of human recombinant CYP2C9 in presence of reduced glutathione. The note with it: recombinant enzyme. Type of data set: ADME.
Data set [3] addresses T3, Cytochrome P450 2D6 (Homo sapiens, UniProt P10635). As to the kind of experiment: Inhibition of human recombinant CYP2D6 in presence of reduced glutathione. Type of data set: ADME. The settings on record: recombinant enzyme.
Data set [4] concerns the target T4, Cytochrome P450 3A4 (Homo sapiens, UniProt P08684). As to the kind of experiment: Inhibition of human recombinant CYP3A4 in presence of reduced glutathione. The data set is classed as ADME. The settings on record: recombinant enzyme.
Data set [5] has as its target T4, Cytochrome P450 3A4. As to the kind of experiment: Inhibition of human recombinant CYP3A4 at 100 uM. The data set is classed as ADME. The settings on record: recombinant enzyme.
Data set [6] deals with T3, Cytochrome P450 2D6. The experiment in a line: Inhibition of human recombinant CYP2D6 at 100 uM. The data set is classed as ADME. The note with it: recombinant enzyme.
In data set [7] the target is T1, Cytochrome P450 2B6. The experiment in a line: Inhibition of human recombinant CYP2B6 at 100 uM. The data set is classed as ADME. The note with it: recombinant enzyme.
For another data set, the target named is T5, Cytochrome P450 1A2 (Homo sapiens, UniProt P05177).
T5 sequence (P05177 whole entry): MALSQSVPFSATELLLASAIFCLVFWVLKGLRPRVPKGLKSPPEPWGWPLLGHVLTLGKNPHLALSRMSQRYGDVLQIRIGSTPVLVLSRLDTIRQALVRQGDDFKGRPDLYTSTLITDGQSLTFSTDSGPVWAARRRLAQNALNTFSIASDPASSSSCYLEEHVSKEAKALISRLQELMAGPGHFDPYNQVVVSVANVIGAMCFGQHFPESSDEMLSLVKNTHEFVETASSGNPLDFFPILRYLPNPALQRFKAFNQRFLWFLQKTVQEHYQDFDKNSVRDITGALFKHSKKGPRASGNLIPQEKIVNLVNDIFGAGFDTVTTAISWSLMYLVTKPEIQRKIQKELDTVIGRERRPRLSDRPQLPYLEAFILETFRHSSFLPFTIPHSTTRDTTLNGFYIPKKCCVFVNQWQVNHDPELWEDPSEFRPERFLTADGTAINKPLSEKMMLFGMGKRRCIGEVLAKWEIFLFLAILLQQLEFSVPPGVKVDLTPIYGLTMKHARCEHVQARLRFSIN
As to the kind of experiment: Inhibition of human recombinant CYP1A2. The note with it: for log(1/IC50): human, recombinant CYP1A2.

Data set [8] concerns the target T2, Cytochrome P450 2C9. The experiment in a line: Inhibition of human recombinant CYP2C9. The data set is classed as ADME.

T4 sequence (P08684 whole entry): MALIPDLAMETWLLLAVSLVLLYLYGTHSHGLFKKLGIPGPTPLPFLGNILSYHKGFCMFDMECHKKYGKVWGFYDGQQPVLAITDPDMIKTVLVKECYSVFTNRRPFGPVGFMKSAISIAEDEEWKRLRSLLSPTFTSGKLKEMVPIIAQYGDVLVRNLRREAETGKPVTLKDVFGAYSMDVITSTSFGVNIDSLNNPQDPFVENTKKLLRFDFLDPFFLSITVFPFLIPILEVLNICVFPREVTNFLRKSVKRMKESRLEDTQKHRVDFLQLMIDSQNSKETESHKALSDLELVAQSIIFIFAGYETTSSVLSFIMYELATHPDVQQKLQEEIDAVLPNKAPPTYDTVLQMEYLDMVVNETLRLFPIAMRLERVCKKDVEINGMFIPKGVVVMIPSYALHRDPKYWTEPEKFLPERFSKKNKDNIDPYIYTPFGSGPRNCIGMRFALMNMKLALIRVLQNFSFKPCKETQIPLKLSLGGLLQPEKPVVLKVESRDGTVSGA
T2 sequence (P11712 whole entry): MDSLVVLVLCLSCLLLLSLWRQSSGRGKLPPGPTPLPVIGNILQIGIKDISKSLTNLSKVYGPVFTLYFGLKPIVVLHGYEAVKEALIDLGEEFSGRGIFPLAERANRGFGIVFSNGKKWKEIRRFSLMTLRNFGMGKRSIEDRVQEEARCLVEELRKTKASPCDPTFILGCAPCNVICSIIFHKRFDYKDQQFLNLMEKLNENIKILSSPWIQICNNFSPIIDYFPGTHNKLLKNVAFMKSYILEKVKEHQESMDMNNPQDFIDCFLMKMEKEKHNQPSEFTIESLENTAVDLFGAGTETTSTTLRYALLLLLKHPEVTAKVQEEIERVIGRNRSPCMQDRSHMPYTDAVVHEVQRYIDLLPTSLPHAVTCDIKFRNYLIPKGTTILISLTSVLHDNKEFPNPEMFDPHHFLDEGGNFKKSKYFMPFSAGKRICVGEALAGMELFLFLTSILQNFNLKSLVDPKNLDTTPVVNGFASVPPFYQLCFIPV
T3 sequence (P10635 whole entry): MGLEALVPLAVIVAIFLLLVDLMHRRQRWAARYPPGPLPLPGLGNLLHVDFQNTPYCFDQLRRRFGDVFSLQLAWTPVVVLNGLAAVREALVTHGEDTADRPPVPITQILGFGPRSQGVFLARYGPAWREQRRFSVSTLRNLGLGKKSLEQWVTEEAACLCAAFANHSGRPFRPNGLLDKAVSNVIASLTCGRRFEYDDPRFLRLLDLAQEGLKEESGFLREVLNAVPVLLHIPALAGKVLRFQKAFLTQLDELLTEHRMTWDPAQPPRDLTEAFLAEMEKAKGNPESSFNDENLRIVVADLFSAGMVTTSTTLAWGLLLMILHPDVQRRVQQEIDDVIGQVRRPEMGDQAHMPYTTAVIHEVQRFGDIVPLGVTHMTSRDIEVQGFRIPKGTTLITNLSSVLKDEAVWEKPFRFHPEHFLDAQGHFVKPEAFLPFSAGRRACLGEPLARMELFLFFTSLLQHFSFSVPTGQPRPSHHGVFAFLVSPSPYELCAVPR

In the case of `O=C1/C(=C/c2ccc(Cl)cc2)CC/C1=C\c1ccc(Cl)cc1`, the Activity entry at Cytochrome P450 2B6 [1], on Cytochrome P450 2C9 [2], on Cytochrome P450 2D6 [3] and on Cytochrome P450 3A4 [4] was “Not Active” throughout.
Take `COc1ccc(/C=C2\CC/C(=C\c3ccc(OC)cc3)C2=O)cc1`: the Activity entry on Cytochrome P450 2B6 [1], on Cytochrome P450 2C9 [2], on Cytochrome P450 2D6 [3] and at Cytochrome P450 3A4 [4] was “Not Active” in each case.
Consider `Cc1cc(/C=C2\CCC/C(=C\c3cc(C)c(O)c(C)c3)C2=O)cc(C)c1O`, for which the Activity result at Cytochrome P450 2B6 [1], at Cytochrome P450 3A4 [5], at Cytochrome P450 2C9 [2], on Cytochrome P450 2D6 [6], on Cytochrome P450 2D6 [3] and at Cytochrome P450 3A4 [4] was “Not Active” throughout. In addition, the Activity result on Cytochrome P450 2B6 [7] is given as “Not Active”.
Take `O=C1/C(=C/c2ccccc2)CCC/C1=C\c1ccccc1` [2,6-DIBENZYLIDENECYCLOHEXANONE]: the Activity result on Cytochrome P450 2B6 [1], at Cytochrome P450 3A4 [5], on Cytochrome P450 2C9 [2], at Cytochrome P450 2D6 [6], at Cytochrome P450 2D6 [3] and at Cytochrome P450 3A4 [4] was “Not Active” in each case. Besides, the Activity entry on Cytochrome P450 2B6 [7] was “Not Active”. In addition, the negative logarithm of the IC50 (pIC50) on Cytochrome P450 1A2 was 6.05. For the same molecule, the “log(1/IC50)” value on Cytochrome P450 1A2 came out at 3.046.
Regarding `CC(C)(C)c1ccc(/C=C/C(=O)/C=C/c2ccc(C(C)(C)C)cc2)cc1`, the Activity result on Cytochrome P450 2B6 [1], at Cytochrome P450 2C9 [2], at Cytochrome P450 2D6 [3] and on Cytochrome P450 3A4 [4] was “Not Active” throughout. The pIC50 at Cytochrome P450 1A2 is 4.55. The “log(1/IC50)” value on Cytochrome P450 1A2 is reported as 1.553.
On to `O=C(/C=C/c1ccc(C(F)(F)F)cc1)/C=C/c1ccc(C(F)(F)F)cc1`, for which the Activity entry at Cytochrome P450 2B6 [1], on Cytochrome P450 2C9 [2], at Cytochrome P450 2D6 [3] and at Cytochrome P450 3A4 [4] was “Not Active” in each case. Besides, the pIC50 at Cytochrome P450 1A2 was 5.40. The “log(1/IC50)” value on Cytochrome P450 1A2 is listed as 2.398.
As for `CC(C)(C)c1cc(/C=C2\CCC/C(=C\c3cc(C(C)(C)C)c(O)c(C(C)(C)C)c3)C2=O)cc(C(C)(C)C)c1O`, the Activity result at Cytochrome P450 2B6 [1], on Cytochrome P450 3A4 [5], at Cytochrome P450 2C9 [2], at Cytochrome P450 2D6 [6], on Cytochrome P450 2D6 [3] and at Cytochrome P450 3A4 [4] was “Not Active” each time. Also, the Activity entry on Cytochrome P450 2B6 [7] was “Not Active”.
As to `O=C1/C(=C/c2ccc(C(F)(F)F)cc2)CC/C1=C\c1ccc(C(F)(F)F)cc1`, the Activity entry on Cytochrome P450 2B6 [1], at Cytochrome P450 2C9 [2], at Cytochrome P450 2D6 [3] and at Cytochrome P450 3A4 [4] was “Not Active” in each case.
With `O=C1/C(=C/c2ccccc2)CC/C1=C\c1ccccc1`, the Activity result on Cytochrome P450 2B6 [1], on Cytochrome P450 2C9 [2], at Cytochrome P450 2D6 [3] and on Cytochrome P450 3A4 [4] was “Not Active” throughout. In addition, on Cytochrome P450 1A2, the negative-log IC50 (pIC50) was 4.44. In addition, the “log(1/IC50)” value on Cytochrome P450 1A2 was 1.437.
Regarding `O=C1/C(=C/c2cccc(Cl)c2)CCC/C1=C\c1cccc(Cl)c1`, the Activity result at Cytochrome P450 2B6 [1], on Cytochrome P450 3A4 [5], at Cytochrome P450 2C9 [2], on Cytochrome P450 2D6 [6], on Cytochrome P450 2D6 [3] and on Cytochrome P450 3A4 [4] was “Not Active” in each case. Also, at Cytochrome P450 2B6 [7], the Activity result was “Not Active”. On Cytochrome P450 1A2, the negative-log IC50 (pIC50) was 5.47. Further, the “log(1/IC50)” value at Cytochrome P450 1A2 is reported as 2.469.
As for `O=C1/C(=C/c2ccc(C(F)(F)F)cc2)CCC/C1=C\c1ccc(C(F)(F)F)cc1`, the Activity result at Cytochrome P450 2B6 [1], on Cytochrome P450 3A4 [5], on Cytochrome P450 2C9 [2], at Cytochrome P450 2D6 [6], at Cytochrome P450 2D6 [3] and on Cytochrome P450 3A4 [4] was “Not Active” each time. Besides, the Activity result on Cytochrome P450 2B6 [7] was “Not Active”. The pIC50 on Cytochrome P450 1A2 was 4.98. Also, the “log(1/IC50)” value on Cytochrome P450 1A2 was determined as 1.983.
As for `CN(C)c1ccc(/C=C2\CC/C(=C\c3ccc(N(C)C)cc3)C2=O)cc1`, the Activity result on Cytochrome P450 2B6 [1], at Cytochrome P450 2C9 [2], on Cytochrome P450 2D6 [3] and on Cytochrome P450 3A4 [4] was “Not Active” in each case.
For `O=C(/C=C/c1cccc(Cl)c1)/C=C/c1cccc(Cl)c1`, the Activity result on Cytochrome P450 2B6 [1], on Cytochrome P450 2C9 [2], on Cytochrome P450 2D6 [3] and on Cytochrome P450 3A4 [4] was “Not Active” in each case. The negative-log IC50 (pIC50) at Cytochrome P450 1A2 is 5.47; on Cytochrome P450 2C9 [8], 4.67. Further, the “log(1/IC50)” value at Cytochrome P450 1A2 came out at 2.469.
Turning to `Cc1cc(/C=C2\CC/C(=C\c3cc(C)c(O)c(C)c3)C2=O)cc(C)c1O`, the Activity entry at Cytochrome P450 2B6 [1], at Cytochrome P450 2C9 [2], at Cytochrome P450 2D6 [3] and at Cytochrome P450 3A4 [4] was “Not Active” in each case. Also, the negative logarithm of the IC50 (pIC50) at Cytochrome P450 2C9 [8] was 4.55.
Regarding `O=C(/C=C/c1ccc(Cl)c(Cl)c1)/C=C/c1ccc(Cl)c(Cl)c1`, the Activity entry on Cytochrome P450 2B6 [1], at Cytochrome P450 2C9 [2], at Cytochrome P450 2D6 [3] and on Cytochrome P450 3A4 [4] was “Not Active” each time.
`O=C1/C(=C/c2cccc(Cl)c2)CC/C1=C\c1cccc(Cl)c1`: the Activity entry at Cytochrome P450 2B6 [1], at Cytochrome P450 2C9 [2], at Cytochrome P450 2D6 [3] and on Cytochrome P450 3A4 [4] was “Not Active” throughout.
For the molecule `Cc1ccc(/C=C/C(=O)/C=C/c2ccc(C)cc2)cc1`, the Activity entry at Cytochrome P450 2B6 [1], at Cytochrome P450 2C9 [2], at Cytochrome P450 2D6 [3] and at Cytochrome P450 3A4 [4] was “Not Active” each time.
For the molecule `CN(C)c1ccc(/C=C2\CCC/C(=C\c3ccc(N(C)C)cc3)C2=O)cc1`, the Activity entry on Cytochrome P450 2B6 [1], at Cytochrome P450 3A4 [5], on Cytochrome P450 2C9 [2], on Cytochrome P450 2D6 [6], at Cytochrome P450 2D6 [3] and on Cytochrome P450 3A4 [4] was “Not Active” in each case. The Activity entry at Cytochrome P450 2B6 [7] is “Not Active”. In addition, on Cytochrome P450 1A2, the negative logarithm of the IC50 (pIC50) was 5.59. Also, the “log(1/IC50)” value at Cytochrome P450 1A2 is 2.585.
Take `Cc1ccc(/C=C2\CCC/C(=C\c3ccc(C)cc3)C2=O)cc1`: the Activity entry at Cytochrome P450 2B6 [1], on Cytochrome P450 3A4 [5], at Cytochrome P450 2C9 [2], on Cytochrome P450 2D6 [6], at Cytochrome P450 2D6 [3] and on Cytochrome P450 3A4 [4] was “Not Active” in each case. For the same molecule, the Activity result at Cytochrome P450 2B6 [7] was “Not Active”. Besides, the pIC50 at Cytochrome P450 1A2 is 4.68. The “log(1/IC50)” value on Cytochrome P450 1A2 is recorded as 1.678.
Take `O=C1/C(=C/c2ccc(Cl)c(Cl)c2)CC/C1=C\c1ccc(Cl)c(Cl)c1`: the Activity entry at Cytochrome P450 2B6 [1], on Cytochrome P450 2C9 [2], on Cytochrome P450 2D6 [3] and at Cytochrome P450 3A4 [4] was “Not Active” in each case.
Consider `COc1ccc(/C=C2\CCC/C(=C\c3ccc(OC)cc3)C2=O)cc1`, for which the Activity result on Cytochrome P450 2B6 [1], at Cytochrome P450 3A4 [5], on Cytochrome P450 2C9 [2], on Cytochrome P450 2D6 [6], on Cytochrome P450 2D6 [3] and on Cytochrome P450 3A4 [4] was “Not Active” throughout. For the same molecule, the Activity result on Cytochrome P450 2B6 [7] is recorded as “Not Active”. Also, the negative logarithm of the IC50 (pIC50) on Cytochrome P450 1A2 is 4.96. Further, at Cytochrome P450 1A2, the “log(1/IC50)” value was found to be 1.959.
Turning to `O=C(/C=C/c1ccc(Cl)cc1)/C=C/c1ccc(Cl)cc1`, the Activity entry at Cytochrome P450 2B6 [1], on Cytochrome P450 2C9 [2], on Cytochrome P450 2D6 [3] and on Cytochrome P450 3A4 [4] was “Not Active” in each case. The negative logarithm of the IC50 (pIC50) on Cytochrome P450 1A2 was 4.58. For the same molecule, at Cytochrome P450 1A2, the “log(1/IC50)” value was found to be 1.575.
